Laboratory results reported in patent publication US20100196907A1, “MARKERS TO PREDICT AND MONITOR RESPONSE TO AURORA KINASE B INHIBITOR THERAPY” (ABBOTT LABORATORIES, priority 2009, published 2010).
Blank lines part the entries; values can stand above or below the compound they belong to.

Columns and labels:
[1] = human plasma; cited from earlier work
bone marrow = settings: cited from earlier work
[2] = system: DoHH-2 B-cell lymphoma xenografts; test: xenograft growth, DoHH-2; assay type: in vivo, mice
HCT116 = test: xenograft growth, HCT116; assay type: in vivo, mice
[3] = system: HCT-15 colon carcinoma xenografts; test: xenograft growth, HCT-15; assay type: in vivo, mice
SW620^ABCB1/3 cells [4] = test: histone H3 phosphorylation immunoblot, SW620^ABCB1/3; assay type: cell-based, human
Protocol: (§1) SW620 and SW620^ABCB1/3 cells were washed and allowed to grow in drug-free medium overnight. […] The lysates were then probe-sonicated for 10 seconds then clarified by centrifugation at 15,000 g for 15 minutes at 4° C. After treatment with SDS-sample buffer, protein extracts were resolved on NuPAGE Bis-Tris 4-12% gels (Invitrogen (Carlsbad, Calif.)). Samples were electrotransferred to PVDF membranes (Invitrogen (Carlsbad, Calif.)), incubated with primary antibody overnight, and developed using Pierce Dura-Signal chemiluminescence reagents (Pierce, Rockford, Ill.), or Odyssey infrared imaging system from LI-COR Biosciences (Lincoln, Nebr.).

cell line panel = test: 7-day colony formation or viability, cell line panel; assay type: cell-based, human
Protocol: (§2) SW620^ABCB1/3 and the respective parental cell lines were washed and 500 cells/well were seeded into six-well plates in drug-free medium. Then, 24 hours later, compounds were diluted in DMEM or RPMI, added to the cells, which were cultured at 37° C. for 7-10 days. Cells were then fixed and stained with 0.2% crystal violet to visualize and count colonies.

HCT-15 = test: colony formation, HCT-15; assay type: cell-based, human
AsPC1 = test: colony formation, AsPC1; assay type: cell-based, human
SW620^ABCB1/3 = test: colony formation, SW620^ABCB1/3; assay type: cell-based, human
Protocol: as §2

SW620^ABCB1/3 tumors = test: intratumor pharmacokinetics, SW620^ABCB1/3 xenografts; assay type: in vivo, mice
Protocol: (§3) C.B.-17 scid-bg (scid-bg) or C.B.-17 scid (scid) mice were obtained from Charles River Laboratories (Wilmington, Mass., USA) at 5-6 weeks of age and used for studies when greater than 8 weeks of age and/or about 20 grams in size. All animal studies were conducted in a specific pathogen-free environment in accordance with the Internal Institutional Animal Care and Use Committee (IACUC), accredited by the American Association of Laboratory Animal Care under conditions that meet or exceed the standards set by the United States Department of Agriculture Animal Welfare Act, Public Health Service policy on humane care and use of animals and the NIH guide on laboratory animal welfare. Overt signs of dehydration, lack of grooming, lethargy, greater than 15% weight loss as well as tumor volume greater then 20% body weight were used to determine tumor end point. SW620 cell lines were obtained from the ATCC (Manassas, Va.) and cultured according to their recommendations without antibiotics and routinely tested for Mycoplasma and confirmed to be microbe-free by infectious microbe PCR amplification test (IMPACT; Missouri Research Animal Diagnostic Laboratory, Columbia, Mo.) prior to in vivo inoculation. […] Two bisecting diameters were measured with calipers and tumor volumes were estimated from the formula: (length×width^2)/2. […]

[5] = system: panel of 50 other kinases; settings: cited from earlier work
SW620^ABCB1/3 cells [6] = test: intracellular drug concentration by LC-MS; assay type: in vitro ADME, human; settings: 1 μM for 4 hours
Protocol: SW620 and SW620^ABCB1/3 cells were washed and allowed to grow in drug-free medium overnight. […] Cytosolic drug accumulation was determined by LC-MS analysis. Briefly, cells were rinsed once with PBS and extracted in cell lysis buffer. The medium, PBS wash, and cell lysate were treated with 2 volumes of acidified MeOH. Crude whole-cell lysates were then clarified by centrifugation at 15000 g for 15 minutes at 4° C. yielding an insoluble cell pellet and cytosol. The insoluble cell pellet was diluted 1:10 with 50% acetonitrile and centrifuged at 11,000 g for 5 minutes.

SW620 cells = test: histone H3 phosphorylation immunoblot, SW620; assay type: cell-based, human
Protocol: as §1

SW620 xenografts = test: tumor histone H3 phosphorylation, SW620 xenografts; assay type: in vivo, mice
Protocol: as §1, with “Nebr.). C.B.-17 scid-bg (scid-bg) or C.B.-17 scid (scid) mice were obtained from Charles River Laboratories (Wilmington, Mass., USA) at 5-6 weeks of age and used for studies when greater than 8 weeks of age and/or about 20 grams in size. […] Two bisecting diameters were measured with calipers and tumor volumes were estimated from the formula: (length×width^2)/2. […]” for “Nebr.).”

SW620 tumors = test: intratumor pharmacokinetics, SW620 xenografts; assay type: in vivo, mice; settings: single i.p. 100 mg kg^−1
Protocol: as §3

[7] = system: SW620 colon carcinoma cells; test: selection of SW620 cells in 1 μM AZD1152 HQPA; assay type: cell-based, human; settings: after 5 passages
Protocol: All cells were maintained at 37° C. in 5% CO2. […] Less than 0.01% of cells survived this treatment after 5 passages (data not shown). […] In the drug-resistant SW620 derivative (hereafter referred to as SW620^ABCB1/3), ABCB1, which encodes MDR1, was the most highly overexpressed gene on the array, and was identified by two distinct probe sets (FIG. 1A, inset). […] Among the gene set that encodes known small molecule transporters, ABCB1 and ABCB4 are the only two that show highly differential expression (FIG. 1A). The apparent co-upregulation of ABCB1 and ABCB4 was curious given that these genes lie juxtaposed within a common genomic locus on the long arm of chromosome 7 (7q21.1).

SW620^ABCB1/3 xenografts = test: tumor histone H3 phosphorylation, SW620^ABCB1/3 xenografts; assay type: in vivo, mice
Protocol: as §1, with “Nebr.). C.B.-17 scid-bg (scid-bg) or C.B.-17 scid (scid) mice were obtained from Charles River Laboratories (Wilmington, Mass., USA) at 5-6 weeks of age and used for studies when greater than 8 weeks of age and/or about 20 grams in size. […] Two bisecting diameters were measured with calipers and tumor volumes were estimated from the formula: (length×width^2)/2. […]” for “Nebr.).”

SMILES: CCN(CCCOc1ccc2c(Nc3cc(CC(=O)Nc4cccc(F)c4)n[nH]3)ncnc2c1)CCOP(=O)(O)O [AZD1152, 2-[[3-({4-[(5-{2-[(3-Fluorophenyl)amino]-2-oxoethyl}-1H-pyrazol-3-yl)amino]-quinazolin-7-yl}oxy)propyl](ethyl)amino)ethyl dihydrogen phosphate]
conversion of prodrug to active drug [1]: rapidly converted to the active drug | reversibility of myelosuppression (bone marrow; following cessation of AZD1152 treatment): fully reversible | myelosuppression (bone marrow; secondary to inhibition of proliferation of the bone marrow): transient myelosuppression

SMILES: Cc1cc(Nc2cc(N3CCN(C)CC3)nc(Sc3ccc(NC(=O)C4CC4)cc3)n2)[nH]n1 [VX-680, cyclopropane carboxylic acid {4-[4-(4-methyl-piperazin-1-yl)-6-(5-methyl-2H-pyrazol-3-ylamino)-pyrimidin-2-ylsulphanyl]-phenyl}-amide]
tumor growth inhibition [2]: significant tumor growth inhibition | tumor growth inhibition (HCT116): significant tumor growth inhibition | xenograft growth under treatment [3]: unabated

SMILES: C/C=C/C[C@@H](C)C(=O)[C@H]1C(=O)N[C@@H](C(C)C)C(=O)N(C)CC(=O)N(C)[C@@H](CC(C)C)C(=O)N[C@@H](C(C)C)C(=O)N(C)[C@@H](CC(C)C)C(=O)N[C@@H](C)C(=O)N[C@H](C)C(=O)N(C)[C@@H](CC(C)C)C(=O)N(C)[C@@H](CC(C)C)C(=O)N(C)[C@@H](C(C)C)C(=O)N1C [PSC-833]
reversal of resistance to AZD1152 HQPA (SW620^ABCB1/3 cells [4]; 1 μM PSC-833 for 2 hours prior to AZD1152 HQPA): effective in reversing the resistance

SMILES: O=C(O)c1ccc(Nc2ncc3c(n2)-c2ccc(Cl)cc2C(c2c(F)cccc2F)=NC3)cc1 [MLN8054, 4-{[9-choloro-7-(2,6-difluorophenyl)-5H-pyrimido[5,4-D][2]benzazepin-2-yl]amino}-benzoic acid]
activity profile in the cell line panel (cell line panel; sensitive vs ABCB1-overexpressing lines): No apparent loss in potency

SMILES: CC(=O)O[C@H]1C(=O)[C@@]2(C)[C@H]([C@H](OC(=O)c3ccccc3)[C@]3(O)C[C@H](OC(=O)[C@H](O)[C@@H](NC(=O)c4ccccc4)c4ccccc4)C(C)=C1C3(C)C)[C@]1(OC(C)=O)CO[C@@H]1C[C@@H]2O [paclitaxel]
relative sensitivity (HCT-15): relatively insensitive | relative sensitivity (AsPC1): not AsPC1 were relatively insensitive | relative sensitivity (SW620^ABCB1/3): relatively insensitive

period of tumor concentration above threshold (SW620^ABCB1/3 tumors; SW620^ABCB1/3 tumors, single i.p. 100 mg kg^−1): ~6 h | overall tumor AUC compared to the parental cohort (SW620^ABCB1/3 tumors; single IP administration, 24-hour period post-dose): reduction in the overall tumor AUC | drug in the cytosol compared to parental SW620 cells (SW620^ABCB1/3 cells [6]): Significantly less drug | IC50 (HCT-15; Homo sapiens): 1.4 µM | period of tumor concentration above threshold (SW620 tumors): at least 24 hours | IC50 (SW620^ABCB1/3; Homo sapiens): 2 µM
SMILES: CCN(CCO)CCCOc1ccc2c(Nc3cc(CC(=O)Nc4cccc(F)c4)[nH]n3)ncnc2c1 [AZD1152 HQPA]
activity against a panel of 50 other kinases [5]: inactive | intrinsic potency (histone H3 phosphorylation) (SW620^ABCB1/3 cells [4]; SW620^ABCB1/3): 2 µM | more drug required to inhibit histone H3 phosphorylation than the parental line (SW620^ABCB1/3 cells [4]; SW620^ABCB1/3 vs parental SW620, 90 minutes): approximately 100 fold | IC50 (cell line panel; Homo sapiens, most (sensitive) cell lines of the panel): 0.004 to 0.015 µM | intrinsic potency (histone H3 phosphorylation) (SW620 cells): 0.02 µM | minimum threshold intratumor concentration to inhibit histone H3 phosphorylation (SW620 xenografts; SW620 xenografts, potency x fold loss in 50% (v/v) mouse plasma): 0.1 µM | inhibition of Aurora B (histone H3 phosphorylation) in tumors (SW620 xenografts; parental SW620 xenografts, single dose 100 mg kg^−1 i.p.): Sustained inhibition | cells that survived treatment [7]: Less than 0.01% | inhibition of histone H3 phosphorylation in tumors (SW620^ABCB1/3 xenografts; SW620^ABCB1/3 tumors, single dose 100 mg kg^−1 i.p.): transient inhibition | minimum threshold intratumor concentration to inhibit histone H3 phosphorylation (SW620^ABCB1/3 xenografts; SW620^ABCB1/3 xenografts, potency x fold loss in 50% (v/v) mouse plasma): 10 µM
